How the values were obtained:
[1] = tested on: multi-species bacterial consortium (artificial consortium); assay: Dose protocol: growth inhibition (O.D. 650 nm, 4 hours) of artificial bacterial consortium in synthetic white water, I50 and synergy index; type: cell-based; conditions: for Synergy Index: <1.00 synergistic; for mg/l NH2Cl (alone or in the mixture) to yield 50% inhibition (I50) / mg/l NHCl2 (alone or in the mixture) to yield 50% inhibition (I50): concurrent feed, mg/l as Cl2
Procedure: The efficacies of the active materials and blends were determined using a dose protocol. The actives were evaluated in synthetic white water (see Smith et al., U.S. Pat. […] The materials were tested against multi-species bacterial consortium (also referred to as an artificial consortium) containing approximately equal numbers of six bacterial strains. Although the test strains are representative of organisms present in paper mill systems, the effect is not limited to these bacteria. Two of the strains were Klebsiella pneumonia (ATCC 13883) and Pseudomonas aeruginosa (ATCC 15442). The other four strains were isolated from paper mill systems and have been identified as Curtobacterium flaccumfaciens, Burkholderia cepacia, Bacillus maroccanus, and Pseudomonas […]. Each strain was grown on Tryptic Soy Agar overnight at 37° C. Sterile cotton-tipped swabs were used to aseptically transfer cells to a sterile solution of saline. Each cell suspension was prepared to a desired concentration as measured by turbidity before equal volumes of each strain were then combined to prepare the consortium. The bacterial consortium was distributed into the wells of a microtiter plate before additions of monohaloamine and/or dihaloamine were made. The microtiter plates were incubated at 37° C. Optical density (O.D.) readings at 650 nm were taken initially (t0) and after time 4 hours (t4) of incubation. […] The inhibition values can be plotted versus dosage for each active and the particular blend. […] Synergy Index (SI)=(QA÷Qa)+(QB÷Qb) where: • QA=quantity of compound A in mixture, producing the end point • Qa=quantity of compound A, acting alone, producing the end point • QB=quantity of compound B in mixture, producing the end point • Qb=quantity of compound B, acting alone, producing the end point […] A measured amount of monochloramine and a measured amount of dichloramine were added to a suspension of bacteria and the cell suspension incubated for a selected time period. The effectiveness of the combination of biocides was determined by measuring growth or lack thereof after an additional appropriate incubation time.

[2] = tested on: artificial bacterial consortia; assay: Standard challenge assay: numbers of bacteria surviving after contact time in mineral salt solution; type: cell-based
Procedure: The antibacterial efficacy of monochloramine and dichloramine alone and in combination were compared in a standard challenge assay. To perform the assay, artificial bacterial consortia were prepared using the same species as those in the microtiter assays. A mineral salt solution was prepared by combining K2HPO4 (1.2 mg/l), KH2PO4 (0.624 mg/l), (NH4)2SO4 (0.05 g/l), and NaCl (0.1 mg/l). This solution was sterilized by autoclaving (121° C., 15 min) and, after cooling, it was amended with the following: 10 ml/l of filter sterilized solution of 0.5% (w/v) of CaCl2.6H2O; 10 ml/l of filter sterilized solution of 2% MgSO4.7H2O; filter-sterilized glucose (0.01 g/l, final concentration); 1 ml of a filter-sterilized solution containing Na2EDTA (ethylene diamine tetra acetate) (1.58 g/100 ml), ZnSO4.7H2O (0.7 g/100 ml); MnSO4—H2O (0.18 g/100 ml); FeSO4.7H2O (0.16 g/100 ml); COCl2.6H2O (0.052 g/100 ml); NaMoO4.2H2O (0.042 g/100 ml); and CuSO4.5H2O (0.047 g/100 ml). Equal volumes of cell suspensions of each strain were then combined to prepare the consortium. The bacterial consortium was distributed into sterile glass containers and immediately used in challenge studies. To determine the effect of pH of the mineral salt solution on efficacy of monochloramine, dichloramine, and combinations thereof, the pH of the cell suspension was adjusted to desired levels using dilute solutions of sodium hydroxide or phosphoric acid, as appropriate. The pH values tested in the challenge studies were 5.0, 6.0, 7.0, and 8.0. The pH values represent the pH of whitewater typical of the majority of paper mills.
After the monohaloamine solution was prepared, the quantity needed to achieve a desired final concentration was transferred to the previously prepared bacterial consortium. Samples of the bacterial consortium were collected immediately before addition of the monochloramine and after contact times, usually 1, 10, and 20 minutes. Controls were untreated cell suspensions.
To perform a challenge study, monochloramine was prepared to a desired concentration by mixing appropriate quantities of 30% ammonium hydroxide and 6.2% percent sodium hypochlorite in a volume of deionized water in such a manner as to achieve equimolar ratios of Cl^− and NH2^+. After preparation of the monochloramine solution, the purity of the solution was verified by determining its absorbance spectrum. To prepare a dichloramine solution, the pH of a monochloramine solution was adjusted to down to 5.0. This ensured conversion of monochloramine to dichloramine. […] The concentrations of monochloramine and dichloramine in the solutions were confirmed by measuring total chlorine concentration by Hach DPD chlorine test.
In this example, a measured amount of monochloramine and a measured amount of dichloramine were added to a consortium of bacteria prepared to a density of approximately 1×10^6 cells per milliliter and the cell suspension incubated for a selected time. The consortium of bacteria is described above. The effectiveness of the combination of biocides was determined by measuring the number of bacteria that survived after the contact time. The efficacy of monochloramine, dichloramine, and combinations of the two actives were compared at different pH values. Bacterial consortia were prepared in mineral salts solutions with pH adjusted to selected values and challenged with monochloramine and dichloramine and combinations thereof. Samples for enumerating the number of surviving bacteria were collected at selected time intervals.
Although synergy was detected when monochloramine and dichloramine were combined in a 1:1 ratio, the results of Example 1 illustrated that optimum ratios were larger than 1:1 (monochloramine to dichloramine). In this example, bacterial consortia were prepared with the pH of the mineral salts solution adjusted to selected levels immediately before the cells were added. […]

[3] = pH 5.5, based on 50% inhibition
[4] = pH 8.0, based on 50% inhibition

NCl [NH2Cl, monochloramine]
Synergy Index [1, 3]: 1.00 | mg/l NH2Cl (alone or in the mixture) to yield 50% inhibition (I50) ([1]; pH 5.5, synthetic white water): 18.21 mg/L | Synergy Index [1, 4]: 1.00 | mg/l NH2Cl (alone or in the mixture) to yield 50% inhibition (I50) ([1]; pH 8.0, synthetic white water): 7.96 mg/L | Numbers of bacteria surviving after a 20 minute contact time (average of three values) ([2]; pH 5.0, 0.5 mg/l single active): 4.97 log10 | Numbers of bacteria surviving after a 20 minute contact time (average of three values) ([2]; pH 5.0, 1.0 mg/l single active): 3.94 log10 | Numbers of bacteria surviving after a 20 minute contact time (average of three values) ([2]; pH 6.0, 0.5 mg/l single active): 5.14 log10 | Numbers of bacteria surviving after a 20 minute contact time (average of three values) ([2]; pH 6.0, 1.0 mg/l single active): 5.14 log10 | Numbers of bacteria surviving after a 20 minute contact time (average of three values) ([2]; pH 7.0, 0.5 mg/l single active): 5.47 log10 | Numbers of bacteria surviving after a 20 minute contact time (average of three values) ([2]; pH 7.0, 1.0 mg/l single active): 5.17 log10 | Numbers of bacteria surviving after a 20 minute contact time (average of three values) ([2]; pH 8.0, 0.5 mg/l single active): 5.74 log10 | Numbers of bacteria surviving after a 20 minute contact time (average of three values) ([2]; pH 8.0, 1.0 mg/l single active): 5.71 log10

ClNCl [NHCl2, dichloramine]
Synergy Index [1, 3]: 1.00 | mg/l NHCl2 (alone or in the mixture) to yield 50% inhibition (I50) ([1]; pH 5.5, synthetic white water): 17.23 mg/L | Synergy Index [1, 4]: 1.00 | mg/l NHCl2 (alone or in the mixture) to yield 50% inhibition (I50) ([1]; pH 8.0, synthetic white water): 0.59 mg/L | Numbers of bacteria surviving after a 20 minute contact time (average of three values) ([2]; pH 5.0, 0.5 mg/l single active): 5.58 log10 | Numbers of bacteria surviving after a 20 minute contact time (average of three values) ([2]; pH 5.0, 1.0 mg/l single active): 4.47 log10 | Numbers of bacteria surviving after a 20 minute contact time (average of three values) ([2]; pH 6.0, 0.5 mg/l single active): 5.17 log10 | Numbers of bacteria surviving after a 20 minute contact time (average of three values) ([2]; pH 6.0, 1.0 mg/l single active): 3.62 log10 | Numbers of bacteria surviving after a 20 minute contact time (average of three values) ([2]; pH 7.0, 0.5 mg/l single active): 5.52 log10 | Numbers of bacteria surviving after a 20 minute contact time (average of three values) ([2]; pH 7.0, 1.0 mg/l single active): 5.40 log10 | Numbers of bacteria surviving after a 20 minute contact time (average of three values) ([2]; pH 8.0, 0.5 mg/l single active): 5.62 log10 | Numbers of bacteria surviving after a 20 minute contact time (average of three values) ([2]; pH 8.0, 1.0 mg/l single active): 5.26 log10
